The assay deals with MthK (Methanothermobacter thermautotrophicus, UniProt O27564). The assay is classed as biochemical.

Usually IC50 stands for the concentration that inhibits the measured activity by half. A higher IC50 goes with lower potency. `NCCCCNCCCN` [SPD^3+] yielded an IC50 of 860 ± 20 µM.
`NCCCNCCCCNCCCN` [SPM^4+] registered an IC50 of 77 ± 6 µM.

The values are drawn from PMC7335011 (The Journal of General Physiology, 2020).
